Laboratory results as given in ChEMBL document CHEMBL3875183, “Structure guided design of a series of selective pyrrolopyrimidinone MARK inhibitors” (Bioorg Med Chem Lett, 2017).

What was measured:
[1] = test system: MDR1 (human MDR1 or rat MDR1a); test: Apparent permeability of the compound in pig LLC-PK1 cells expressing human MDR1 or rat MDR1a; type: ADME, cell-based, Sus scrofa
[2] = Volume of distribution in dog; type: ADME, Canis lupus familiaris; settings: in vivo
[3] = Clearance in dog plasma; type: ADME, cell-free, Canis lupus familiaris
[4] = Clearance in rat plasma; type: ADME, cell-free
[5] = Lipophilicity, logD of the compound; type: physicochemical; settings: octanol/water
[6] = Volume of distribution in rat; type: ADME; settings: in vivo
[7] = Half life in human liver microsomes; type: ADME
[8] = Half life in rat liver microsomes; type: ADME
[9] = Half life in dog; type: ADME, Canis lupus familiaris; settings: in vivo
[10] = Half life in rat; type: ADME; settings: in vivo

Papp [1] [×10⁻⁶ cm/s] | Vd [2] [L/kg] | clearance [3] [mL/min/kg] | clearance [4] [mL/min/kg] | logD [5] | Vd [6] [L/kg] | half-life [7] [min] | half-life [8] [min] | half-life [9] [min] | half-life [10] [min] | Compound
12 | – | – | – | – | – | – | – | – | – | CC1(C)C(=O)N(C2CCCCC2)c2nc(Nc3ccccc3)ncc21
– | 4 | 68 | 341 | 2.92 | 16.2 | 10 | 9 | 48 | 48 | CC1(C)C(=O)N([C@H]2CCc3c(O)cccc32)c2nc(Nc3ccccc3)ncc21
